Measurements reported in patent US11524966B1 (Valo Early Discovery, Inc., priority 2017, dated 2022).

Molecular target: T1, USP25 (USP25-His6, Boston Biochem E-546) (Homo sapiens, UniProt Q9UHP3)
T1 construct: His6; purchased Boston Biochem E-546
T1 sequence (Q9UHP3 1-1055): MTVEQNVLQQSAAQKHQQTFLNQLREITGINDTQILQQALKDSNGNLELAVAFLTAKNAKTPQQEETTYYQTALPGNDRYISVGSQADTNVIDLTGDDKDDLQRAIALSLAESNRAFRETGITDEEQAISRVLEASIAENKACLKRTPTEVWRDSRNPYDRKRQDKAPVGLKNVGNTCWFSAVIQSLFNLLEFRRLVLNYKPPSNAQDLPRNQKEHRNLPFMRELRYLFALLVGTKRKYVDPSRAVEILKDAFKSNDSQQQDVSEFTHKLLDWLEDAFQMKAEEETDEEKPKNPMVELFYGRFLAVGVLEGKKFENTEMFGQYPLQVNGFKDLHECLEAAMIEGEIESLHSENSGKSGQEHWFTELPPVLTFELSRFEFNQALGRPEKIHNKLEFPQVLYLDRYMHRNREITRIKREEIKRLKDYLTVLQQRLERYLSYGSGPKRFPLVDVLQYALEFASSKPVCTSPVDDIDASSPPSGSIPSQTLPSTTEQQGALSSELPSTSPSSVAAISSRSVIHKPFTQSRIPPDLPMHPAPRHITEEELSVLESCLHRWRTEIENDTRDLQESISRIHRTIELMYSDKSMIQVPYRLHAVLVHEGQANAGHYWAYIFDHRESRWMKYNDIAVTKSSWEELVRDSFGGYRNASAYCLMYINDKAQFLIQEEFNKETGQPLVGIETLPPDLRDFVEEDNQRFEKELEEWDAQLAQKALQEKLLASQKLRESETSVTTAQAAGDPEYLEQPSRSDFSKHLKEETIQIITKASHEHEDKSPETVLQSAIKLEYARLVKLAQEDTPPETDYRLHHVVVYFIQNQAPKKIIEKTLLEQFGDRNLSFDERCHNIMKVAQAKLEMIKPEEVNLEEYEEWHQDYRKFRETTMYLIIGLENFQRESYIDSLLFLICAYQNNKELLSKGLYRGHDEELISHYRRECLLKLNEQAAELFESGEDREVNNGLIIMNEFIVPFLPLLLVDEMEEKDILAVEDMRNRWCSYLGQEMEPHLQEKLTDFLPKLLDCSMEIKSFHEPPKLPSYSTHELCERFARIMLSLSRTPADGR
Assay: Ubiquitin-Rhodamine 110 Assay for USP25 Activity, Example A-2
Format: biochemical
Conditions: Ubiquitin-Rhodamine 110 assay, Example A-2; read-out: USP25 A-2 IC50 range
Procedure, shortened: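 USP25-His6 (75 pM) was preincubated with compound (10-point, 3-fold series, 25 μM to 1.3 nM) for 30 min in 20 mM Tris-HCl pH 8.0, 3 mM BME, 0.03% BGG, 0.01% Triton X-100. Ub-Rh110 (25 nM, <<Km) was then added for 45 min at room temperature, citric acid-stopped, and fluorescence read at 485/535 nm.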

SMILES | IC50 [nM]
Cc1ccc2c(N)c(C(=O)N[C@@H]3CCc4cc(N5CCN[C@@H](CO)C5)ccc4C3)sc2n1 (single isomer, unassigned) [Example 7-11] | 200 to 2000
Cc1cnc2c(N)c(C(=O)N[C@H]3COc4cc(N5CC6CC(C5)N6)cc(F)c4C3)sc2n1 [Example 10-8, N-((3R)-7-(3,6-diazabicyclo[3.1.1]heptan-3-yl)-5-fluorochroman-3-yl)-7-amino-3-methylthieno[2,3-b]pyrazine-6-carboxamide] | 50 to 200
Cc1cnc2c(N)c(C(=O)N[C@H]3CCc4cc(N5CC6CCC(C5)N6)cc(F)c4C3)sc2n1 (single isomer, unassigned) [Example 11-13] | > 2000
Cc1ccc2c(N)c(C(=O)N[C@H]3CCc4cc(N5CCN[C@@H](CO)C5)ccc4C3)sc2n1 (single isomer, unassigned) [Example 7-9] | > 2000
Cc1ccc2c(N)c(C(=O)N[C@H]3CCc4cc(N5CCNCC5)cc(F)c4C3)sc2n1 (single isomer, unassigned) [Example 11-11] | > 2000
Cc1cc(C)c2c(N)c(C(=O)N[C@H]3COc4cc(N5CC6CC(C5)N6)cc(F)c4C3)sc2n1 [Example 10-7, N-((3R)-7-(3,6-diazabicyclo[3.1.1]heptan-3-yl)-5-fluorochroman-3-yl)-3-amino-4,6-dimethylthieno[2,3-b]pyridine-2-carboxamide] | 50 to 200
Cc1ccc2c(N)c(C(=O)N[C@H]3COc4cc(C5(F)CCNCC5)ccc4C3)sc2n1 [Example 8-1, (R)-3-Amino-N-(7-(4-fluoropiperidin-4-yl)chroman-3-yl)-6-methylthieno[2,3-b]pyridine-2-carboxamide] | 50 to 200
Cc1cnc2c(N)c(C(=O)N[C@@H]3CCc4cc(N5CC6CCC(C5)N6)ccc4C3)sc2n1 (single isomer, unassigned) [Example 11-8] | > 2000
Cc1cnc2c(N)c(C(=O)N[C@H]3CCc4cc(N5CCNC[C@@H](O)C5)ccc4C3)sc2n1 (single isomer, unassigned) [Example 7-4] | 200 to 2000
Cc1cnc2c(N)c(C(=O)N[C@H]3COc4cc(N5CCNCC5)cc(F)c4C3)sc2n1 [Example 10-10, (R)-7-amino-N-(5-fluoro-7-(piperazin-1-yl)chroman-3-yl)-3-methylthieno[2,3-b]pyrazine-6-carboxamide] | 50 to 200
Cc1cnc2c(N)c(C(=O)N[C@H]3CCc4cc(N5CC6CCC(C5)N6)ccc4C3)sc2n1 (single isomer, unassigned) [Example 11-7] | 200 to 2000
Cc1ccc2c(N)c(C(=O)N[C@@H]3CCc4cc(N5CCNCC5)cc(F)c4C3)sc2n1 (single isomer, unassigned) [Example 11-12] | 200 to 2000
COc1ccc2c(N)c(C(=O)N[C@H]3CCc4cc(N5CC6CCC(C5)N6)ccc4C3)sc2n1 (single isomer, unassigned) [Example 11-5] | 200 to 2000
CCn1ccc2cc(C(=O)N[C@@H]3CCc4cc(N5CC6CCC(C5)N6)ccc4C3)cnc21 (single isomer, unassigned) [Example 11-10] | 200 to 2000
Cc1ccc2c(N)c(C(=O)N[C@H]3COc4cc(N5CCNCC5)cc(F)c4C3)sc2n1 [Example 10-1, (R)-3-amino-N-(5-fluoro-7-(piperazin-1-yl)chroman-3-yl)-6-methylthieno[2,3-b]pyridine-2-carboxamide] | 50 to 200
Cc1cnc2c(N)c(C(=O)N[C@@H]3CCc4cc(N5CCNC[C@H](O)C5)ccc4C3)sc2n1 (single isomer, unassigned) [Example 7-7] | > 2000
COc1ccc2c(N)c(C(=O)N[C@@H]3CCc4cc(N5CC6CCC(C5)N6)ccc4C3)sc2n1 (single isomer, unassigned) [Example 11-6] | > 2000
Cc1cc(C)c2c(N)c(C(=O)N[C@H]3COc4cc(N5CCNCC5)cc(F)c4C3)sc2n1 [Example 10-9, (R)-3-amino-N-(5-fluoro-7-(piperazin-1-yl)chroman-3-yl)-4,6-dimethylthieno[2,3-b]pyridine-2-carboxamide] | 50 to 200
Cc1nc2sc(C(=O)N[C@@H]3CCc4cc(N5CC6CCC(C5)N6)ccc4C3)c(N)c2cc1F (single isomer, unassigned) [Example 11-4] | 50 to 200
CCn1ccc2cc(C(=O)N[C@@H]3CCc4cc(N5CC6CCC(C5)N6)ccc4C3)nnc21 (single isomer, unassigned) [Example 11-23] | > 2000

Same assay, conditions: Ubiquitin-Rhodamine 110 assay, format Example A-2; read-out: USP25 A-2 IC50 range

SMILES | IC50 [nM]
Cc1ccc2c(N)c(C(=O)N[C@H]3COc4c(F)c(N5CC6CCC(C5)N6)cc(F)c4C3)sc2n1 (single isomer, unassigned) [Example 13-1] | 50 to 200
Cc1ccc2c(N)c(C(=O)N[C@@H]3CCc4cc(N5CC6CCC(C5)N6)c(F)cc4C3)sc2n1 (single isomer, unassigned) [Example 21-3] | 50 to 200
Cc1ccc2c(N)c(C(=O)N[C@@H]3CCc4cc(N5C6CNCC5C6)ccc4C3)sc2n1 (single isomer, unassigned) [Example 11-36] | 200 to 2000
Cc1nc2sc(C(=O)N[C@@H]3CCc4c(C#N)c(N5CC6CCC(C5)N6)cc(F)c4C3)c(N)c2s1 (single isomer, unassigned) [Example 14-22] | > 2000
Cc1ccc2c(N)c(C(=O)N[C@H]3CCc4c(F)c(N5CC6CNCC(C5)O6)cc(F)c4C3)sc2n1 (single isomer, unassigned) [Example 22-3] | > 2000
Cc1ccc2c(N)c(C(=O)N[C@@H]3CCc4cc(N5CCNCC5)c(F)cc4C3)sc2n1 (single isomer, unassigned) [Example 21-7] | 200 to 2000
Cc1ccc2c(N)c(C(=O)N[C@@H]3CCc4c(F)c(N5CC6CNCC(C5)O6)cc(F)c4C3)sc2n1 (single isomer, unassigned) [Example 22-4] | 1 to 50
Cc1nc2sc(C(=O)N[C@H]3CCc4cc(N5CC6CCC(C5)N6)ccc4C3)c(N)c2s1 (single isomer, unassigned) [Example 12-1] | > 2000
CO[C@H]1CN(c2ccc3c(n2)CC[C@H](NC(=O)c2sc4nc(C)cc(C)c4c2N)C3)C[C@@H]1N [Example 23-3, 3-amino-N-[(6S)-2-[(3S,4S)-3-amino-4-methoxypyrrolidin-1-yl]-5,6,7,8-tetrahydroquinolin-6-yl]-4,6-dimethylthieno[2,3-b]pyridine-2-carboxamide] | > 2000
Cc1ccc2c(N)c(C(=O)N[C@H]3COc4cc(N5CCNCC5)c(Cl)cc4C3)sc2n1 [Example 13-5, (R)-3-amino-N-(6-chloro-7-(piperazin-1-yl)chroman-3-yl)-6-methylthieno[2,3-b]pyridine-2-carboxamide] | > 2000
Cc1ccc2c(N)c(C(=O)N[C@H]3COc4c(cnc(N5CC6CCC(C5)N6)c4F)C3)sc2n1 [Example 18, N-((3R)-7-(3,8-Diazabicyclo[3.2.1]octan-3-yl)-8-fluoro-3,4-dihydro-2H-pyrano[3,2-c]pyridin-3-yl)-3-amino-6-methylthieno[2,3-b]pyridine-2-carboxamide] | 50 to 200
Cc1ccc2c(N)c(C(=O)N[C@@H]3COc4c(F)c(N5CC6CCC(C5)N6)cc(F)c4C3)sc2n1 (single isomer, unassigned) [Example 13-2] | > 2000
Cc1ccc2c(N)c(C(=O)N[C@@H]3COc4cc(N5CC6CCC(C5)N6)c(F)c(F)c4C3)sc2n1 [Example 13-4, N-((3S)-7-(3,8-diazabicyclo[3.2.1]octan-3-yl)-5,6-difluorochroman-3-yl)-3-amino-6-methylthieno[2,3-b]pyridine-2-carboxamide] | 50 to 200
Cc1ccc2c(N)c(C(=O)N[C@H]3CCc4c(ccc(N5CCNCC5)c4F)C3)sc2n1 (single isomer, unassigned) [Example 21-6] | > 2000
Cc1ccc2c(N)c(C(=O)N[C@@H]3CCc4c(F)c(N5CCNCC5)cc(F)c4C3)sc2n1 (single isomer, unassigned) [Example 22-2] | 50 to 200
Cc1ccc2c(N)c(C(=O)N[C@H]3COc4cc(N5CC6CCC(C5)N6)nc(F)c4C3)sc2n1 [Example 17, N-((3R)-7-(3,8-Diazabicyclo[3.2.1]octan-3-yl)-5-fluoro-3,4-dihydro-2H-pyrano[3,2-c]pyridin-3-yl)-3-amino-6-methylthieno[2,3-b]pyridine-2-carboxamide] | 50 to 200
Cc1ccc2c(N)c(C(=O)N[C@H]3CCc4c(F)c(N5CCNCC5)cc(F)c4C3)sc2n1 (single isomer, unassigned) [Example 22-1] | > 2000
